In paper PMC11846820, “Inhibition of DYRK1B BY C81 impedes inflammatory processes in leukocytes by reducing STAT3 activity” (Cellular and Molecular Life Sciences: CMLS, 2025):

Experiments:
Test in all cases: NanoBRET target engagement (tracer displacement) in intact HEK293T cells
Assay type in all cases: cell-based
[1] = biological target: T1, DYRK2 (Homo sapiens, UniProt Q92630)
T1 construct: Full-length, terminal NanoLuc fusion
T1 sequence (Q92630 1-601): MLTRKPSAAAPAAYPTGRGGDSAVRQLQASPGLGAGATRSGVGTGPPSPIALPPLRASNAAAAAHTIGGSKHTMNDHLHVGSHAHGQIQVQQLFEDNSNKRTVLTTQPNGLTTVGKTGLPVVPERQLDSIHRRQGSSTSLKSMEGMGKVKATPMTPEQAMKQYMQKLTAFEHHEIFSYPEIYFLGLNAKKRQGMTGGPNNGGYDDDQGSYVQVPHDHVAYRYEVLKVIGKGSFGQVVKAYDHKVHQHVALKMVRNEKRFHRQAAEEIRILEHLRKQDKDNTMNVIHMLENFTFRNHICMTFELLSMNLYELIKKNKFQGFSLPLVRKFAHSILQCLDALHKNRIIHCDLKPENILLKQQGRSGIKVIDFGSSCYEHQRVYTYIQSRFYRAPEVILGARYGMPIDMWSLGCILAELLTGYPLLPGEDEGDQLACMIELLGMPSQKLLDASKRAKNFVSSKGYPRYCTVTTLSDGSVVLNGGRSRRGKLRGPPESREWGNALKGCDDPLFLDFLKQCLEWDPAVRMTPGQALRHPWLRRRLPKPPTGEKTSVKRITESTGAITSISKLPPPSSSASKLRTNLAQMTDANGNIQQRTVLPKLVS

[2] = biological target: T2, DYRK1B (Homo sapiens, UniProt Q9Y463)
T2 construct: Full-length, terminal NanoLuc fusion

[3] = biological target: T3, CLK1 (Homo sapiens, UniProt P49759)
T3 construct: Full-length, terminal NanoLuc fusion

[4] = biological target: T4, DYRK1A (Homo sapiens, UniProt Q13627)
T4 construct: Full-length, terminal NanoLuc fusion

[5] = biological target: T5, CLK4 (Homo sapiens, UniProt Q9HAZ1)
T5 construct: Full-length, terminal NanoLuc fusion

[6] = biological target: T6, CLK2 (Homo sapiens, UniProt P49760)
T6 construct: Full-length, terminal NanoLuc fusion
T6 sequence (P49760 whole entry, the tested form may be a part): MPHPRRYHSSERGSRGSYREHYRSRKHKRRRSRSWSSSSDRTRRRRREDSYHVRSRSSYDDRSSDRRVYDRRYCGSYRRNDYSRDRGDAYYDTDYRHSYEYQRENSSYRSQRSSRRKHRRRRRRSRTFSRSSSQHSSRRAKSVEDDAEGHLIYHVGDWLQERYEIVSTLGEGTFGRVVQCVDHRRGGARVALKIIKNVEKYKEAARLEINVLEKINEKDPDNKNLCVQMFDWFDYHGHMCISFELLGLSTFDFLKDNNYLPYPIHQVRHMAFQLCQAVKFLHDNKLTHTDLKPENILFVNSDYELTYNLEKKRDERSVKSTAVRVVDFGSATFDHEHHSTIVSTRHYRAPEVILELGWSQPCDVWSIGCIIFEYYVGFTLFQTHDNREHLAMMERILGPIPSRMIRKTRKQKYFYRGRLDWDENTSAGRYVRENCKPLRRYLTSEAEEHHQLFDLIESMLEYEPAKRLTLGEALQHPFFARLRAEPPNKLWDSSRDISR

T5 sequence (Q9HAZ1 whole entry, the tested form may be a part): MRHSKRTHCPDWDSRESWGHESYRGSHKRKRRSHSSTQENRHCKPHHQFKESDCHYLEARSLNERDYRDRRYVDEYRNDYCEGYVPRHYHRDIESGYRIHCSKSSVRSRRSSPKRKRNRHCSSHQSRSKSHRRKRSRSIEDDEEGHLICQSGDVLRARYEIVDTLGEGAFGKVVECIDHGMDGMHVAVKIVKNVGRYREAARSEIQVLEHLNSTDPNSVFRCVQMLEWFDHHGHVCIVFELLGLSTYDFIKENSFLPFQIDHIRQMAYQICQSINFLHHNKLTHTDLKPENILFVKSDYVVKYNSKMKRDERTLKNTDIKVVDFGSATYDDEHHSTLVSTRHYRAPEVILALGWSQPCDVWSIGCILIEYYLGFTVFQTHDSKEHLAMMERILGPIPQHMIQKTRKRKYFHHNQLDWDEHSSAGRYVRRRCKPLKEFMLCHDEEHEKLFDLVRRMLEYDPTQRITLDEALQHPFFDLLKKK
T2 sequence (Q9Y463 whole entry, the tested form may be a part): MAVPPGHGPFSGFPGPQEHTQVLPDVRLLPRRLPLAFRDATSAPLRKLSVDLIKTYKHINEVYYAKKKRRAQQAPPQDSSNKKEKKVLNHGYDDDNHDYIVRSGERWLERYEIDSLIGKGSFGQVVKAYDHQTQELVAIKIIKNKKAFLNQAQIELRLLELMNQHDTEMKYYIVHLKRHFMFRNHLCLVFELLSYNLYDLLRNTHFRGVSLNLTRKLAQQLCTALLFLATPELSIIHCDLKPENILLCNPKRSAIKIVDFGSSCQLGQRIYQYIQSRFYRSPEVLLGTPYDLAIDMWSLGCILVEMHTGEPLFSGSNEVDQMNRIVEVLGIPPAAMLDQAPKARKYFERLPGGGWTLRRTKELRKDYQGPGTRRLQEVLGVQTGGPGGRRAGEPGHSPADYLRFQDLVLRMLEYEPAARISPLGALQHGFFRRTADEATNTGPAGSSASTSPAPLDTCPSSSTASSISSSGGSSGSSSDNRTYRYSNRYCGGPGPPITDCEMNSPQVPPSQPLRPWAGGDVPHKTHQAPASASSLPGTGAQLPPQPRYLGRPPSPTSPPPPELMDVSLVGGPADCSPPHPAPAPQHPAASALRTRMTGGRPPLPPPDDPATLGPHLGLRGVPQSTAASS
T3 sequence (P49759 whole entry, the tested form may be a part): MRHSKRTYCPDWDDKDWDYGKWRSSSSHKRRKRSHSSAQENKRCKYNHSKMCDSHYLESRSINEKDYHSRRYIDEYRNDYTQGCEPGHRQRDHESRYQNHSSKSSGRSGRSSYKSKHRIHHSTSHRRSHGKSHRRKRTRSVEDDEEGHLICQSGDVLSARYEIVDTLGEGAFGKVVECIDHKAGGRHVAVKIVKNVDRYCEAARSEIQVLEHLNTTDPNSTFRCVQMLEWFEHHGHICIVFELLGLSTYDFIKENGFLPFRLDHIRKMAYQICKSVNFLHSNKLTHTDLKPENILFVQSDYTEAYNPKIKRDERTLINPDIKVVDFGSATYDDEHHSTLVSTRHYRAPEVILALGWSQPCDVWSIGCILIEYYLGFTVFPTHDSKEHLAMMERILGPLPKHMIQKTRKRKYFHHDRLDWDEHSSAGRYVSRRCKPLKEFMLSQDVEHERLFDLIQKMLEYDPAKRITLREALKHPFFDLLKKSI

EC50 [1]: 3.4 µM | EC50 [2]: 0.537 µM | EC50 [3]: 0.299 µM | EC50 [4]: 3.8 µM | EC50 [5]: 0.119 µM | EC50 [6]: 5 µM
SMILES: Cc1nccc(-c2cn(Cc3ccccc3)c3cnccc23)n1 [AZ-DYRK1B-33]
